These results are taken from US20250170143A1, “METHODS OF TREATING OCULAR FIBROTIC PATHOLOGIES” (Mayo Foundation for Medical Education and Research, priority 2022, published 2025).

Series [1] concerns ARPE-19 cells. As to the kind of experiment: Fibronectin deposition assay in TGFβ-stimulated ARPE-19 cells. Particulars: for pIC50: ARPE-19 cells stimulated with TGFβ, incubated 96 hours. The format is cell-based, human. The method, then: ARPE-19 cells were plated into 96-well plates (10,000 cells/well) and allowed to attach. Media was removed and replaced with the media specified in the “Cell Culture” section above, without FBS. Cells were treated for four days±TGFβ (10 ng/mL) and 10 μM loxapine. Cells were fixed with 10% neutral buffered formalin (Sigma-Aldrich) for 15 minutes. Cells were permeabilized with 0.25% Triton X-100 (Sigma-Aldrich) and blocked with 1% BSA for 1 hour. Cells were incubated with mouse monoclonal IgG3 primary antibodies against fibronectin (Santa Cruz Biotechnology), which were diluted 1:400 in 0.25% Triton X-100 (Sigma-Aldrich) with 1% BSA. Cells were incubated with primary antibodies either in 4° C. overnight or at room temperature for 2 hours. Cells were washed with PBS (Gibco), then incubated for 1 hour with Alexa Fluor® 488 donkey anti-mouse IgG (H+L) secondary antibodies (Life Technologies) and DAPI (Thermo Fisher Scientific), which were each diluted 1:1000 in 0.25% Triton X-100 (Sigma-Aldrich) with 1% BSA. Cells were washed again with PBS (Gibco). Immunofluorescence was measured using a Cytation 5 imaging reader (BioTek).
The compounds of this Example were tested using the fibronectin deposition assay described in Example 1. In brief, ARPE-19 cells were stimulated with TGFβ+/−the indicated concentration of each compound. Incubated 96 hours Fixed and immunostained for fibronectin.
In brief, ARPE-19 cells were stimulated with TGFβ+/−the indicated concentration of each compound. Incubated 96 hours, fixed and immunostained for fibronectin.

Series [2] relates to profibrotic gene expression (COL1A1, ACTA2, FN1) in ARPE-19 cells. As to the kind of experiment: Profibrotic gene expression by qPCR in ARPE-19 cells treated ±TGFβ. The format is cell-based, human. Conditions: ARPE-19 + TGFβ (10 ng/mL), 24 hours; antagonists 10 μM, pramipexole 1 μM; compared to TGFβ only. As for the experimental part:
ARPE-19 cells were plated into 12 well plates (100,000 cells/well) and allowed to attach. Media was removed and replaced with the media specified in the “Cell Culture” section above, minus FBS. Cells were treated for 24 hours±TGFβ (10 ng/mL), 1 μM pramipexole, and 10 μM loxapine. RNA was isolated using the RNeasy Plus Mini Kit (Qiagen) and the manufacturer's protocol. Isolated RNA was converted to cDNA using the SuperScript VILO cDNA Synthesis Kit (Invitrogen) and the PTC-200 Peltier Thermal Cycler (MJ Research). Quantitative PCR (qPCR) was performed using FastStart Essential DNA Green Master (Roche) and LightCycler 96 (Roche).
After identifying the preferential expression of DRD2 in ARPE-19 cells, the regulatory effects of these receptors on fibrotic activation were elucidated. As to D2 dopamine receptor (FIG. 2A-B), RNA isolation and qPCR were used to measure the transcript levels of fibrotic markers in ARPE-19 cells treated±TGFβ, pramipexole (D2 agonist), and loxapine (D2 antagonist). […] In experiments combining pramipexole and loxapine along with TGFβ negates the activity of the molecules alone, confirming their activity is being driven by their interaction with the D2 receptor (FIG. 2B).
The effect of solnitropine, solupine, and loxapine on the expression of profibrotic genes COL1A1 and FN1 were evaluated as described in Example 1 (FIGS. 7A and 7B). In brief, ARPE-19 cells were treated±TGFβ in the presence of either loxapine, solnitropine, or solupine. Gene expression was measured by qPCR on RNA isolated from the treated cells 24 h after treatment.

For another series, the system named is mouse eye. As to the kind of experiment: Toxicology scoring of mouse eye injected with solupine. Conditions: mice, 14 days. The format is in vivo. The method, then: Mice were injected with 1 μL of PBS (FIG. 17A), 1 μL PBS containing 10 μg/0.05 mL solupine (FIG. 17B), or 1 μL PBS containing 30 μg/0.05 mL solupine (FIG. 17C). The eyes were then analyzed by a pathologist and scored for the indicated observations of ocular toxicities. over the course of 14 days. Work was performed under contract with Labcorp. N=3-6 mice/group.

For series [3], the system named is ARPE-19 cells. As to the kind of experiment: PDGF-CC stimulated proliferation. Particulars: ARPE-19, 10 ng/mL PDGF-CC; compared with methotrexate. The format is cell-based, human. The method, then:
Effect of methotrexate, solupine, sertindole, penfluridol, pimozide, and fluspirilene, on FGF-β stimulated proliferation was determined. Methods: ARPE-19 cells were seeded into 96-well plates (1,000 cells/well) and incubated for 6 h at 37° C. After, media was removed and exchanged for media containing 0% fetal bovine serum+/−10 ng/mL FGF-β, and the indicated concentration of compound. Compound concentrations were selected based on the potencies observed in FIGS. 4A-6B, and 9A-9C. After the indicated number of hours, cells were fixed in 4% formalin, and DAPI stained. Cells were then imaged using an automated microscope (Biotek Cytation5) and the number of DAPI nuclei were quantified using onboard software (Gen5). Raw cells/field of view are plotted. N=3. […] FGF-β levels are elevated in patients with PVR.
Effect of methotrexate and solupine on PDGF-CC stimulated proliferation was determined. Methods: experiments were carried out as described in Example 6, except 10 ng/mL PDGF-CC was used to stimulate proliferation. […] PDGF-CC levels are elevated in patients with PVR.

Series [4] has as its system ARPE-19 cells. As to the kind of experiment: Fibronectin deposition in ARPE-19 cells stimulated with a cocktail of profibrotic ligands. Type of series: cell-based, human. Particulars: TGF-β1, TGF-β2, TNF-α, FGF-β, PDGF-CC all at 10 ng/mL, 10 μM solupine. The method, then:
ARPE-19 cells were cultured as described in FIGS. 4-6 and fibronectin was measured after stimulating the cells with a combination of profibrotic soluble factors including: T1=TGF-β1, T2=TGF-β2, Tα=TNF-α, Fβ=FGF-β, PC=PDGF-CC, (all at 10 ng/mL). +/−10 μM solupine. N=3. Results: solupine maintains its efficacy at blocking RPE cell fibronectin deposition when profibrotic factors are combined in a cocktail.

In series [5] the test system is Human conjunctival fibroblasts. As to the kind of experiment: Fibronectin deposition by conjunctival fibroblasts. Type of series: cell-based. Conditions: conditions of FIGS. 4-6, indicated concentrations of solupine. As for the experimental part: Human conjunctival fibroblasts were cultured under the same conditions described in FIGS. 4-6 and fibronectin deposition was measured after treating with the indicated concentrations of solupine. N=3.

Series [6] relates to ARPE-19 cells. As to the kind of experiment: Solupine functional stability (stored saline stock vs fresh, FGF-β proliferation readout). Conditions: dissolved in saline, opaque sealed container, 4° C.; potency compared with fresh stock in FGF-β proliferation. Type of series: cell-based, human. As for the experimental part: A powder stock of solupine was dissolved in saline and stored in an opaque, sealed container at 4° C. for 90 days. The potency and efficacy of this stored stock was then compared to freshly solubilized stock of solupine dissolved in saline. ARPE-19 cells were cultured for 4 days with FGF-β and the indicated concentration of fresh or 90-day-old solupine stock. Cells were then assayed for proliferation as described herein for FIGS. 10 and 11. N=3. Results: solupine stock is functionally stable for at least 90 days under these conditions.

Setting [7] is: Homo sapiens, fibronectin deposition, read-out: IC50.
The mark [8] stands for this setting: fibronectin deposition, read-out: IC50.
The mark [9] stands for this setting: Homo sapiens, read-out: IC50 values (fibronectin deposition).

Molecules are shown by their SMILES. pIC50: −log10 of the molar value. Read-outs that look alike come from different tables or passages of the source.

The pIC50 is −log10 of the IC50, conventionally taken in molar units.

Turning to `O=C(CCCN1CC=C(n2c(=O)[nH]c3ccccc32)CC1)c1ccc(F)cc1` [droperidol], the pIC50 in the series with ARPE-19 cells [1] (setting [7]) is 5.00 to 5.30.
Regarding `O=C(CCCN1CCC(n2c(O)nc3ccccc32)CC1)c1ccc(F)cc1` [benperidol], the pIC50 with ARPE-19 cells [1] (setting [7]) is no less than 5.30.
The same measure, in the same setting: the result for `OCCN1CCN(CCCN2c3ccccc3Sc3ccc(Cl)cc32)CC1` [perphenazine] reads less than 5.00; that for `CN(Cc1cnc2nc(N)nc(N)c2n1)c1ccc(C(=O)N[C@@H](CCC(=O)O)C(=O)O)cc1` [methotrexate], less than 5.00.
For `O=C(CCCN1CCC(n2c(=S)[nH]c3ccccc32)CC1)c1ccc(F)cc1` [timiperone], the pIC50 in the series on ARPE-19 cells [1] (setting [7]) is no less than 5.30.
As to `CCN1CCC[C@H]1CNC(=O)c1c(O)c(Cl)cc(Cl)c1OC` [raclopride], in the series on ARPE-19 cells [1] (setting [7]), the negative-log IC50 (pIC50) was less than 5.00.
Still for that read-out and setting: next, `CN1CCC(=C2c3ccccc3CCc3sccc32)CC1` [pizotifen]: no less than 5.30.
Turning to `CCN1CCC[C@H]1CNC(=O)c1c(OC)ccc(Br)c1OC` [remoxipride], in the series with ARPE-19 cells [1] (setting [7]), the pIC50 was less than 5.00.
On to `Clc1ccc2c(c1)N=C(N1CCNCC1)c1ccccc1N2` [N-desmethyl clozapine], for which the pIC50 in the series on ARPE-19 cells [1] (setting [8]) is no less than 5.30.
With `c1ccc2c(c1)Oc1sccc1N=C2N1CCNCC1` [solupine], the “expression of COL1A1” value in series [2] is recorded as “significantly reduced”. Also, the “expression of FN1” value in series [2] is given as “significantly reduced”. Moreover, the ocular toxicity scoring entry in the series on mouse eye (eye injection 1 μL PBS containing 10 μg/0.05 mL solupine) and with mouse eye (eye injection 1 μL PBS containing 30 μg/0.05 mL solupine) was “No observable toxicity” throughout. Besides, the “potency at blocking PDGF stimulated proliferation” value in the series on ARPE-19 cells [3] was “more potent than methotrexate”. Further, the “fibronectin deposition, cocktail of profibrotic ligands” value in the series on ARPE-19 cells [4] is recorded as “blocks fibronectin deposition”. Also, the negative logarithm of the IC50 (pIC50) in the series on ARPE-19 cells [1] (setting [9]) and in the series on ARPE-19 cells [1] (setting [7]) was no less than 5.30 in each case. Further, the “fibronectin deposition by conjunctival fibroblasts” value in series [5] is reported as “does not block fibronectin deposition”. The “functional stability of stock” value in the series with ARPE-19 cells [6] was “at least 90 days”.
Turning to `O=C1NCCN1CCN1CCC(c2cn(-c3ccc(F)cc3)c3ccc(Cl)cc23)CC1` [sertindole], in the series with ARPE-19 cells [1] (setting [7]), the negative-log IC50 (pIC50) was no less than 5.30.
With `CCc1cc(Cl)c(OC)c(C(=O)NC[C@@H]2CCCN2CC)c1O` [eticlopride], the pIC50 in the series with ARPE-19 cells [1] (setting [7]) was less than 5.00.
As for `O=c1[nH]c2ccccc2n1C1CCN(CCCC(c2ccc(F)cc2)c2ccc(F)cc2)CC1` [pimozide], in the series with ARPE-19 cells [1] (setting [7]), the pIC50 was no less than 5.30.
On to `Cc1cc2c(s1)Nc1ccccc1N=C2N1CCNCC1` [N-desmethyl olanzapine], for which, in the series with ARPE-19 cells [1] (setting [8]), the pIC50 is no less than 5.30.
For `CN1CCN(CCCN2c3ccccc3Sc3ccc(C(F)(F)F)cc32)CC1` [trifluoperizine], the pIC50 in the series with ARPE-19 cells [1] (setting [8]) is less than 5.00.
Turning to `CN1CCN(C2=Nc3ccccc3Oc3ccc(Cl)cc32)CC1` [loxapine], the negative-log IC50 (pIC50) in the series on ARPE-19 cells [1] (setting [7]) is no less than 5.30.
Turning to `c1ccc2c(c1)Oc1cccnc1N=C2N1CCNCC1` [solnitropine], the “expression of COL1A1” value in series [2] is listed as “significantly reduced”. Also, the “expression of FN1” value in series [2] is listed as “significantly reduced”. Also, the negative-log IC50 (pIC50) in the series with ARPE-19 cells [1] (setting [9]) and with ARPE-19 cells [1] (setting [7]) was no less than 5.30 each time.
As to `O=C1CCc2ccc(OCCCCN3CCN(c4cccc(Cl)c4Cl)CC3)cc2N1` [aripiprazole], the fibronectin deposition entry in the series with ARPE-19 cells [1] (ARPE-19, TGFβ, performed identically to FIGS. 4-6, N=3) is “blocks fibronectin deposition”.
On to `O=C1NCN(c2ccccc2)C12CCN(CCCC(c1ccc(F)cc1)c1ccc(F)cc1)CC2` [fluspirilene], for which the pIC50 in the series with ARPE-19 cells [1] (setting [7]) is no less than 5.30.
Same read-out and setting: next, `CCN1CCCC1CNC(=O)c1cc(S(N)(=O)=O)ccc1OC` (stereo not shown) [sulpiride]: less than 5.00.
In the case of `CN1CCN(C2=Nc3cc(O)ccc3Oc3ccc(Cl)cc32)CC1` [8-OH-loxapine], the negative logarithm of the IC50 (pIC50) in the series on ARPE-19 cells [1] (setting [8]) was less than 5.00.
Regarding `O=C1[C@@H]2[C@H]3CC[C@H](C3)[C@@H]2C(=O)N1C[C@@H]1CCCC[C@H]1CN1CCN(c2nsc3ccccc23)CC1` [lurasidone], the pIC50 in the series with ARPE-19 cells [1] (setting [7]) was no less than 5.30.
`OC1(c2ccc(Cl)c(C(F)(F)F)c2)CCN(CCCC(c2ccc(F)cc2)c2ccc(F)cc2)CC1` [penfluridol]: in the series on ARPE-19 cells [1] (setting [7]), the pIC50 was no less than 5.30.
Take `CCN1CCCC1CNC(=O)c1cc(S(=O)(=O)CC)c(N)cc1OC` (stereo not shown) [amisulpride]: the pIC50 in the series on ARPE-19 cells [1] (setting [7]) was less than 5.00.
In the case of `CCN1CCN(c2cc(-c3ccc(F)cc3)c3c(n2)CCCCCC3)CC1` [blonanserin], the pIC50 in the series with ARPE-19 cells [1] (setting [7]) is 5.00 to 5.30.
